Source: US20190216956A1, “COMPOSITIONS FOR RADIOTHERAPY AND USES THEREOF” (priority 2016, published 2019)
Where a name gives a salt, the structure may show the parent alone.

Assays:
[1] = test system: NCI-28H cells; test: Cytotoxicity assay (MTS) of NCI-28H cells treated with bleomycin, talc, talc bound to bleomycin (Example 16); type: cell-based; details: 72 hrs
Procedure: Read absorbance (MTS assay) and calculate cells survival rate.
1. […] 500,000 cells/670,000=0.75 ml of cells/media mix need to take from flask and transfer to 9.25 ml media. […] Gently mix.
1. Bring back tubes from cold room to laboratory. Centrifuge 3200 rpm for 3 min. Take out supernatant.
3. Wash cells 2×300 μL DPBS, remove final wash.
6. Incubate plate 1 hr at 37° C., 5% CO2.

[2] = test system: NCI-2052H cells; test: Cytotoxicity assay (MTS) of NCI-2052H cells: bleomycin, mitomycin, doxorubicin, paclitaxel, talc, talc bound to drugs (Example 23); type: cell-based; details: for Average readings: cells + drug, bleomycin / Average reading: cells + drug, paclitaxel / Average reading: cells + drug, mitomycin: absorbance 490 nm
[3] = test system: NCI-28H cells; test: Cytotoxicity assay (MTS) of NCI-28H cells: doxorubicin, cisplatin, paclitaxel, talc, talc bound to drugs (Example 21); type: cell-based; details: NCI-28H cells; for Average readings: cells + drug: absorbance 490 nm
Procedure: Read absorbance (MTS assay) and calculate cells survival rate. Compare survival rate between each formulation.
1. Set up 3 cytotoxicity plates for Day 2 experiment: trypsinize NCI-28H cells (T-75 flask, passage 12): • Remove old medium, wash cells with 7 ml DPBS, remove DPBS, add 2 ml trypsin, incubate plates for 1-2′, when cells detached add 6 ml fresh medium, mix cells and medium. • Count cells under the microscope using the glass slide. […] If we need 200 wells, in each well will be 5,000 cells in 0.1 ml; so total we need 1,000,000 cells in 20 ml. […] In 50 ml Falcon tube, combine 16.6 ml fresh medium and 3.4 ml cells. Gently mix.
3. […] Final solution is 500 μL of 20 μM.
(§1) 1. Centrifuge tubes at 3200 rpm for 3 min. Take out supernatant.
6. Check the plate and start incubation at 37° C./5% CO2
3. Wash cells 1×300 μL media, remove final wash.

[4] = test system: NCI-28H cells; test: Cytotoxicity assay (MTS) of NCI-28H cells: carboplatin, mitomycin, gemcitabine, talc, talc bound to drugs (Example 22); details: NCI-28H cells; for Average absorbance readings: cells + drug, mitomycin: 490 nm
Procedure: Read absorbance (MTS assay) and calculate cells survive rate. Compare survival rate
1. Set up 3 cytotoxicity plates for tomorrow experiment: trypsinize NCI-28H cells (T-75 flask, passage 12): • Remove old medium, wash cells with 7 ml DPBS, remove DPBS, add 2 ml trypsin, incubate plates for 1-2′, when cells detached add 6 ml fresh medium, mix cells and medium. • Count cells under the microscope using the glass slide. […] If we need 200 wells, in each well will be 5,000 cells in 0.1 ml; so total we need 1,000,000 cells in 20 ml.
2. […] Final solution is 500 μL of 500 μM carboplatin.
4. […] Final solution is 500 μL of 200 μM Gemcitabine.
as §1
3. Add 100 μL of each 8 preparations of diluted carboplatin (step 1 and 2) to the proper wells according to a plate layout.
4. Add 100 μL of each 8 preparations of diluted Gemcitabine (step 1, 2, 3) to the proper wells according to a plate layout.
6. Check the plate and start incubation at 37° C./5% CO2.
3. Wash all cells 1×300 μL DPBS, remove final wash.

[5] = test system: NCI-2052H cells; test: Repeated cytotoxicity experiment (MTS): NCI-2052H cells, mitomycin, talc, talc bound to mitomycin (Example 24); type: cell-based; details: for Average reading: drug + cells: absorbance 490 nm
Procedure: Compare survival rate of cells.
1. […] Protocol how to do that see in previous cytotoxicity experiment.
as §1
1. Incubate plate for 72 hrs at 37° C., 5% CO2.
3. Wash all wells 1×300 μL DPBS, remove final wash.

[6] = Talc bound to HRP- and cold-Avidin, 48 hours in PBS containing 10% FBS (Example 14); type: physicochemical
Procedure: Purpose: To check how strong the conjugate of hot/cold Avidin to Talc is. […] Absorbance will be checked twice—once before washing with PBS containing 10% FBS and after 48 hours, washing will be done.
6. Weigh 8 mg of Avidin (cold Avidin), then resuspend it in 2 mL of PBS containing 40 ng/mL of “hot” Avidin. So the solution will now be 40 ng/mL hot Avidin+4 mg/mL of Cold Avidin. Label this tube as #1.
14. […] Two identical microplates need to be set up, labeling them as: plate #1 and plate #2. Design of the plate:
3. Wash both plates 3× with 300 μL PBS.
5. […] Mix constantly, cover plate with Aluminum foil.
6. Add 100 μL of TMB to samples in plate #1.
9. Read absorbance at 450 nm using the plate reader.
3. Collect 100 μL supernatant from samples except native controls and load on same plate.
4. Wash plate except supernatant samples 3× with 300 μL PBS.
6. Add 100 μL of TMB to all samples in plate#2.

## Cc1c(N)nc([C@H](CC(N)=O)NC[C@H](N)C(N)=O)nc1C(=O)N[C@H](C(=O)N[C@H](C)[C@@H](O)[C@H](C)C(=O)N[C@H](C(=O)NCCc1nc(-c2nc(C(=O)NCCC[S+](C)C)cs2)cs1)[C@@H](C)O)[C@@H](O[C@@H]1OC(CO)[C@@H](O)C(O)C1O[C@H]1OC(CO)[C@@H](O)C(OC(N)=O)C1O)c1c[nH]cn1 (stereo partly shown) [Bleomycin, Bleomycin sulfate Streptomyces verticillus]
[1]; 0.004 ug/ml
  % survival NCI-28H cells after treatment with BLEOMYCIN: 92.41%
[1]; 0.015 ug/ml
  % survival NCI-28H cells after treatment with BLEOMYCIN: 88.25%
[1]; 0.06 ug/ml
  % survival NCI-28H cells after treatment with BLEOMYCIN: 93.38%
[1]; 0.24 ug/ml
  % survival NCI-28H cells after treatment with BLEOMYCIN: 91.86%
[1]; 0.97 ug/ml
  % survival NCI-28H cells after treatment with BLEOMYCIN: 86.19%
[1]; 3.9 ug/ml
  % survival NCI-28H cells after treatment with BLEOMYCIN: 71.05%
[1]; 15.6 ug/ml
  % survival NCI-28H cells after treatment with BLEOMYCIN: 74.60%
[1]; 62.5 ug/ml
  % survival NCI-28H cells after treatment with BLEOMYCIN: 68.76%
[1]; 250 ug/ml
  % survival NCI-28H cells after treatment with BLEOMYCIN: 47.13%
[1]; 1000 ug/ml
  % survival NCI-28H cells after treatment with BLEOMYCIN: 24.92%
[2]; Bleomycin 0.24 ug/ml
  % survival from untreated cells: 101.64%
[2]; Bleomycin 0.97 ug/ml
  % survival from untreated cells: 97.34%
[2]; Bleomycin 3.9 ug/ml
  % survival from untreated cells: 88.64%
[2]; Bleomycin 15.6 ug/ml
  % survival from untreated cells: 51.72%
[2]; Bleomycin 62.5 ug/ml
  % survival from untreated cells: 38.34%
[2]; Bleomycin 250 ug/ml
  % survival from untreated cells: 20.89%
[2]; Bleomycin 1000 ug/ml
  % survival from untreated cells: 14.62%
[2]; bleomycin 0.24 μg/ml
  Average readings: cells + drug, bleomycin: 1.3454
[2]; bleomycin 0.97 μg/ml
  Average readings: cells + drug, bleomycin: 1.2884
[2]; bleomycin 3.9 μg/ml
  Average readings: cells + drug, bleomycin: 1.1733
[2]; bleomycin 15.6 μg/ml
  Average readings: cells + drug, bleomycin: 0.6846
[2]; bleomycin 62.5 μg/ml
  Average readings: cells + drug, bleomycin: 0.5075
[2]; bleomycin 250 μg/ml
  Average readings: cells + drug, bleomycin: 0.2766
[2]; bleomycin 1000 μg/ml
  Average readings: cells + drug, bleomycin: 0.1935

## CC(=O)O[C@H]1C(=O)[C@@]2(C)[C@H]([C@H](OC(=O)c3ccccc3)[C@]3(O)C[C@H](OC(=O)[C@H](O)[C@@H](NC(=O)c4ccccc4)c4ccccc4)C(C)=C1C3(C)C)[C@]1(OC(C)=O)CO[C@@H]1C[C@@H]2O [Paclitaxel]
[2]; Paclitaxel 0.256 nM
  Average reading: cells + drug, paclitaxel: 1.4273
[2]; Paclitaxel 6.4 nM
  Average reading: cells + drug, paclitaxel: 1.54
[2]; Paclitaxel 32 nM
  Average reading: cells + drug, paclitaxel: 0.5818
[2]; Paclitaxel 160 nM
  Average reading: cells + drug, paclitaxel: 0.4361
[2]; Paclitaxel 800 nM
  Average reading: cells + drug, paclitaxel: 0.4326
[2]; Paclitaxel 4000 nM
  Average reading: cells + drug, paclitaxel: 0.553
[2]; Paclitaxel 20,000 nM
  Average reading: cells + drug, paclitaxel: 0.1647
[2]; paclitaxel 0.256 (nM per Table 97)
  % survival from untreated cells: 83.84%
[2]; paclitaxel 1.28 (nM per Table 97)
  % survival from untreated cells: 93.24%
[2]; paclitaxel 6.4 (nM per Table 97)
  % survival from untreated cells: 90.43%
[2]; paclitaxel 32 (nM per Table 97)
  % survival from untreated cells: 34.17%
[2]; paclitaxel 160 (nM per Table 97)
  % survival from untreated cells: 25.61%
[2]; paclitaxel 800 (nM per Table 97)
  % survival from untreated cells: 25.41%
[2]; paclitaxel 4000 (nM per Table 97)
  % survival from untreated cells: 32.48%
[2]; paclitaxel 20,000 (nM per Table 97)
  % survival from untreated cells: 9.67%
[3]; Paclitaxel 0.13 nM
  % survival (cells + drug): 102.50%
  Average readings: cells + drug: 1.56
[3]; Paclitaxel 0.68 nM
  % survival (cells + drug): 86.98%
  Average readings: cells + drug: 1.33
[3]; Paclitaxel 3.5 nM
  % survival (cells + drug): 89.85%
  Average readings: cells + drug: 1.37
[3]; Paclitaxel 16 nM
  % survival (cells + drug): 84.47%
  Average readings: cells + drug: 1.29
[3]; Paclitaxel 80 nM
  % survival (cells + drug): 71.81%
  Average readings: cells + drug: 1.10
[3]; Paclitaxel 400 nM
  % survival (cells + drug): 66.39%
[3]; Paclitaxel 2000 nM
  % survival (cells + drug): 62.43%
[3]; Paclitaxel 10,000 nM
  % survival (cells + drug): 60.71%

## CO[C@@]12[C@H](COC(N)=O)C3=C(C(=O)C(C)=C(N)C3=O)N1C[C@@H]1N[C@@H]12 [mitomycin]
[2]; mitomycin 0.013 μM
  Average reading: cells + drug, mitomycin: 1.284
[2]; mitomycin 0.064 μM
  Average reading: cells + drug, mitomycin: 1.199
[2]; mitomycin 8 μM
  Average reading: cells + drug, mitomycin: 0.4142
[2]; mitomycin 40 μM
  Average reading: cells + drug, mitomycin: 0.2305
[2]; mitomycin 200 μM
  Average reading: cells + drug, mitomycin: 0.2098
[2]; mitomycin .0026 μM
  Average reading: cells + drug, mitomycin: 1.424
[4]; mitomycin 0.0026 μM
  Average absorbance readings: cells + drug, mitomycin: 2.032
  % survival cells after exposure to drug for 72 hrs (cells + drug only), mitomycin: 106.12%
[4]; mitomycin 0.013 μM
  Average absorbance readings: cells + drug, mitomycin: 1.965
  % survival cells after exposure to drug for 72 hrs (cells + drug only), mitomycin: 102.65%
[4]; mitomycin 0.064 μM
  Average absorbance readings: cells + drug, mitomycin: 1.8766
  % survival cells after exposure to drug for 72 hrs (cells + drug only), mitomycin: 98.03%
[4]; mitomycin 8 μM
  Average absorbance readings: cells + drug, mitomycin: 0.3451
  % survival cells after exposure to drug for 72 hrs (cells + drug only), mitomycin: 18.03%
[4]; mitomycin 40 μM
  Average absorbance readings: cells + drug, mitomycin: 0.52
  % survival cells after exposure to drug for 72 hrs (cells + drug only), mitomycin: 27.16%
[4]; mitomycin 200 μM
  Average absorbance readings: cells + drug, mitomycin: 0.2464
  % survival cells after exposure to drug for 72 hrs (cells + drug only), mitomycin: 12.87%
[5]; Mitomycin 0.013 uM
  Average reading: drug + cells: 0.7907
[5]; Mitomycin 0.064 uM
  Average reading: drug + cells: 0.8267
[5]; Mitomycin 8 uM
  Average reading: drug + cells: 0.4217
[5]; Mitomycin 40 uM
  Average reading: drug + cells: 0.2257
[5]; Mitomycin 200 uM
  Average reading: drug + cells: 0.2243
[5]; Mitomycin .0026 uM
  Average reading: drug + cells: 0.8637
[5]; mitomycin 0.0026 (uM per Table 103)
  % survival from untreated cells: 78.87%
[5]; mitomycin 0.013 (uM per Table 103)
  % survival from untreated cells: 72.21%
[5]; mitomycin 0.064 (uM per Table 103)
  % survival from untreated cells: 75.49%
[5]; mitomycin 0.32 (uM per Table 103)
  % survival from untreated cells: 75.10%
[5]; mitomycin 1.6 (uM per Table 103)
  % survival from untreated cells: 61.83%
[5]; mitomycin 8 (uM per Table 103)
  % survival from untreated cells: 38.51%
[5]; mitomycin 40 (uM per Table 103)
  % survival from untreated cells: 20.61%
[5]; mitomycin 200 (uM per Table 103)
  % survival from untreated cells: 20.49%

## Avidin: Avidin from egg white (Sigma); 60,000 m.w. egg-white protein that binds biotin
[6]
  stability of binding of Avidin to talc: unchanged at 48 hours
